Measured values taken from ChEMBL document CHEMBL1201862, “PubChem BioAssay data set” (2004).
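Cultured in 96-well plates, cells were exposed to test compound for 48 hours across five concentrations. At the GI50, growth is halved.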 Activity calls are given as the source filed them. Cut-off read from the data, not from the text of the source: active = GI50 up to about 1.1 µM and inactive = higher.

Legend:
Assay in all cases: NCI-60 cell line screen, 48 h
DLD-1 = tested on: DLD-1
M19-MEL = tested on: M19-MEL
HOP-18 = tested on: HOP-18
RXF 631 = tested on: RXF 631
XF498 = tested on: XF498
KM-20L2 = tested on: KM-20L2
DMS-114 = tested on: DMS-114
LXFL 529 = tested on: LXFL 529
SNB-78 = tested on: SNB-78

| Structure (SMILES) | GI50 (DLD-1) | GI50 (M19-MEL) | GI50 (HOP-18) | GI50 (RXF 631) | GI50 (XF498) | GI50 (KM-20L2) | GI50 (DMS-114) | GI50 (LXFL 529) | GI50 (SNB-78) |
| --- | --- | --- | --- | --- | --- | --- | --- | --- | --- |
| COc1ccc(/N=C/c2ccc(N(CCC#N)S(=O)(=O)c3ccccc3)cc2)cc1 | > 100 µM (inactive) | > 100 µM (inactive) | > 100 µM (inactive) | > 100 µM (inactive) | > 100 µM (inactive) | > 100 µM (inactive) | > 100 µM (inactive) | > 100 µM (inactive) | > 100 µM (inactive) |
| CCCCOC(=O)N[C@H]1CCc2cc(OC)c(OC)c(OC)c2-c2ccc(SC)c(=O)cc21 | < 0.01 µM (active) | < 0.01 µM (active) | 21.4 µM (inactive) | – | < 0.01 µM (active) | < 0.01 µM (active) | < 0.01 µM (active) | < 0.01 µM (active) | < 0.01 µM (active) |
| CCCCCCCSCC1C(=O)C23C(O)C1CCC2C12COC3(O)C(O)C1C(C)(C)CCC2O (stereo unspecified) | 14.4 µM (inactive) | 15.3 µM (inactive) | 12.5 µM (inactive) | 5.04 µM (inactive) | 18.5 µM (inactive) | 12 µM (inactive) | 8.38 µM (inactive) | 2.37 µM (inactive) | 15.3 µM (inactive) |
| O=C(Nc1c(O)[nH]c(=S)[nH]c1=O)c1ccccc1F | > 100 µM (inactive) | > 100 µM (inactive) | > 100 µM (inactive) | > 100 µM (inactive) | – | > 100 µM (inactive) | > 100 µM (inactive) | > 100 µM (inactive) | > 100 µM (inactive) |
| COC(=O)C12C34C=CC5(CCC6(C=CC1(CC3)O6)C52C(=O)OC)O4 (stereo unspecified) | – | > 100 µM (inactive) | > 100 µM (inactive) | > 100 µM (inactive) | 46.8 µM (inactive) | > 100 µM (inactive) | – | > 100 µM (inactive) | > 100 µM (inactive) |
| C/C(=N/NC(=O)C(N)=O)C(CC(C(=O)Nc1ccccc1C)/C(C)=N\NC(=O)C(N)=O)C(=O)Nc1ccccc1C (stereo unspecified) | > 100 µM (inactive) | > 100 µM (inactive) | – | – | – | > 100 µM (inactive) | – | > 100 µM (inactive) | > 100 µM (inactive) |
| CCCC/C=C1\CCC(C)(CN(C)C)C1=O (stereo unspecified) | > 10 µM (inactive) | 15.6 µM (inactive) | > 100 µM (inactive) | – | – | > 100 µM (inactive) | > 100 µM (inactive) | > 100 µM (inactive) | > 100 µM (inactive) |
| CCOc1ccc(NC(=O)CCc2nnc(SC)o2)cc1 | > 100 µM (inactive) | > 100 µM (inactive) | > 100 µM (inactive) | – | – | > 100 µM (inactive) | > 100 µM (inactive) | > 100 µM (inactive) | > 100 µM (inactive) |
| Cc1c(C)c2cc3c(=O)ccoc3c(C)c2oc1=O | – | 70.6 µM (inactive) | 41.6 µM (inactive) | 83 µM (inactive) | – | > 100 µM (inactive) | 48.3 µM (inactive) | 80.4 µM (inactive) | > 100 µM (inactive) |
| CCCCCCCCCCCCCCCCOC(=O)c1cc(O)cc(C(=O)OCCCCCCCCCCCCCCCC)c1 | – | > 100 µM (inactive) | > 100 µM (inactive) | > 100 µM (inactive) | – | > 100 µM (inactive) | > 100 µM (inactive) | > 100 µM (inactive) | > 100 µM (inactive) |
| Cc1cc(C)c(C(=O)/C(=C/c2ccccc2)c2ccccc2)c(C)c1 | > 100 µM (inactive) | 39.9 µM (inactive) | > 100 µM (inactive) | 29.9 µM (inactive) | 19.2 µM (inactive) | 42.2 µM (inactive) | 35.6 µM (inactive) | 34.8 µM (inactive) | – |
| Cc1c(/N=C\c2ccc(N(CCC#N)CCC#N)cc2)c(=O)n(-c2ccccc2)n1C | > 100 µM (inactive) | > 100 µM (inactive) | 25.2 µM (inactive) | – | 28 µM (inactive) | > 100 µM (inactive) | > 100 µM (inactive) | > 100 µM (inactive) | 51.6 µM (inactive) |
| Cc1cc(/C=C/c2cc[n+](C)c3ccccc23)c(O)c2ncccc12 | 3.32 µM (inactive) | 1.42 µM (inactive) | 1.36 µM (inactive) | – | – | 5.68 µM (inactive) | 0.214 µM (active) | 0.156 µM (active) | 4.63 µM (inactive) |
| CCSC1=CC(Cc2ccc(OC)cc2)N(C(=O)OC)C1 (stereo unspecified) | 81.8 µM (inactive) | > 100 µM (inactive) | > 100 µM (inactive) | > 100 µM (inactive) | > 100 µM (inactive) | > 100 µM (inactive) | 23.4 µM (inactive) | 91.4 µM (inactive) | > 100 µM (inactive) |
| COc1ccc2c(c1)CC[C@@H]1C2CC[C@]2(C)C(=O)NC(=O)CC12 (stereo partly specified) | > 100 µM (inactive) | > 100 µM (inactive) | 26 µM (inactive) | – | > 100 µM (inactive) | > 100 µM (inactive) | – | 59.3 µM (inactive) | > 100 µM (inactive) |
| CCOc1ccc(/N=C/c2c3ccccc3nc3ccccc23)cc1 | 24.7 µM (inactive) | > 100 µM (inactive) | > 100 µM (inactive) | > 100 µM (inactive) | 65.6 µM (inactive) | 40.2 µM (inactive) | 25.1 µM (inactive) | 24.7 µM (inactive) | > 100 µM (inactive) |
| S=c1sc2c(S)nc(S)nc2n1-c1ccccc1 | > 100 µM (inactive) | > 100 µM (inactive) | > 100 µM (inactive) | – | > 100 µM (inactive) | > 100 µM (inactive) | 75.5 µM (inactive) | > 100 µM (inactive) | > 100 µM (inactive) |
| O=C1C2C3C=C4c5ccccc5N(c5ccccc5)C4(C2C(=O)N1c1ccc(Br)cc1)[C@H]1C(=O)N(c2ccc(Br)cc2)C(=O)[C@@H]31 (stereo partly specified) | > 100 µM (inactive) | – | > 100 µM (inactive) | – | > 100 µM (inactive) | > 100 µM (inactive) | – | 83.8 µM (inactive) | > 100 µM (inactive) |
| COC(=O)[C@@]12OC[C@]34C([C@@H](O)C1O)[C@@]1(C)CC(=O)C(OC(=O)/C=C(/c5ccccc5)C(F)(F)F)=C(C)C1C[C@H]3OC(=O)[C@H](O)[C@H]42 (stereo partly specified) | 7.41 µM (inactive) | 5.08 µM (inactive) | 30.1 µM (inactive) | – | 9.82 µM (inactive) | 8.61 µM (inactive) | 4.27 µM (inactive) | 7.35 µM (inactive) | 11.2 µM (inactive) |
| COc1cc2c(cc1OC)C(OC)N(C)c1c-2ccc2cc3c(cc12)OCO3 (stereo unspecified) | 9.68 µM (inactive) | 1.19 µM (inactive) | 21.6 µM (inactive) | – | 0.895 µM (active) | 0.558 µM (active) | 1.17 µM (inactive) | – | 2.67 µM (inactive) |
